Where a name gives a salt, the structure may show the parent alone. Read-outs that look alike come from different tables or passages of the source.

The conditions of data set [1]: literature statement; cited from earlier work.
The subject of data set [2] is mice (phenylquinone-induced writhing). The experiment in a line: phenylquinone writhing test (analgesic ED50), oral, mice. It counts as in vivo, female white mice. The settings on record: Mus musculus, read-out: ED50 analgesia. Here is the method:
A standard procedure for detecting and comparing the analgesic activity of compounds in this series for which there is good correlation with human efficacy is the standard phenylquinone writhing test modified from Siegmund, et. at., Proc. Soc. Exp. Biol. Med. 95, 729 (1957). A test compound suspended in 1% methylcellulose was given orally to fasted (17-21 hours) female white mice, 5-20 animals per double blind test. Aqueous (0.01% phenyl-p-benzoquinone) phenylquinone was injected intraperitoneally at 24 minutes later using 0.20 ml per mouse. […] The effective analgesic dose for 50% of the mice (ED 50) was calculated by the moving average method of Thompson, W. R., Bact. Rev. 11, 115-145 (1947).
(An intraperitoneal irritant provokes the stretching counted in writhing tests.)

Data set [3] is described as follows: Straub tail test (Straub tail ED50), intraperitoneal, mice. Further details: species or system CF1S female mice. The settings on record: mouse, in vivo; for ED50 at 25 min: ip, mice, intraperitoneal, within 25 minutes after dosing, read-out: ED50^ST (Straub tail ED50). As for the experimental part:
Narcotic analgesics produce in mice an erection and arching of the tail (90° or more) which is referable to spinal cord stimulation. This straub tail reaction is not produced by other analgesics, including the narcotic antagonists.
The method used was modified from Shemano, I., and Wendel, H., Tox. Appl. Pharm. 6, 334-9 (1964). CF1 S female mice (18-21 g), 10-20 mice per dose were injected intraperitoneally with log scaled doses of analgesic in 1% aqueous methylcellulose. A positive Straub tail response was recorded if a tail was erected 90° or more for 5 seconds at any time within 25 minutes after dosing. A quantal Straub tail ED50 was calculated by the moving average method. (Thompson, W. R., Bact. Rev. 11, 115-145 (1947).

Data set [4] concerns mice. As to conditions: cited from earlier work.
The nature of the next data set: in vivo. The settings on record: mouse.
Data set [5] relates to mice. As to conditions: cited from earlier work. This is another data set of the same source.
The conditions of data set [6]: Goodman & Gilman 1965; cited from earlier work.
Setting [7] is: oral, Belgian Patent 802,557 compound.

Regarding `CN1CCC2(c3ccccc3)CCCCC2C1` (stereo not shown) [N-methyl-4a-phenyl-decahydroisoquinoline], in data set [1], the “analgesic activity” value was “low analgesic activity”.

The term ED50 denotes the dose that gives a 50% effect, or the effect in half of the subjects. Consider `COc1cccc([C@@]23CCCC[C@H]2CN(CCc2ccc(C)cc2)CC3)c1` (relative stereo) [N-(p-methylphenethyl)-4a-(m-methoxyphenyl)-trans-decahydroisoquinoline], for which the ED50 in data set [2] is 5.8 mg/kg. In addition, the ED50 at 25 min in data set [3] is 93 mg/kg.

With `CC1C2Cc3ccc(O)cc3C1(C)CCN2CCc1ccccc1` (stereo not shown) [Phenzaocine hydrobromide], in the data set on mice [4] (mice, Shemano and Wendel 1964), the “analgesic ED50” value is listed as 0.2 mg/kg. Also, the selectivity ratio in “in vivo” was about 2.5. The “Straub tail ED50” value with mice [5] (mice, Shemano and Wendel 1964) was 0.5 mg/kg.

Consider `Cc1ccc(CCN2CC[C@]3(c4cccc(O)c4)CCCC[C@H]3C2)cc1` (relative stereo) [N-(p-methylphenethyl)-4a-(m-hydroxyphenyl)-trans-decahydroisoquinoline], for which the ED50 in data set [2] was determined as 2 mg/kg. Moreover, the ED50 at 25 min in data set [3] was 93 mg/kg. Further, in data set [3] (ratio of Straub tail ED50 to analgesic ED50, read-out: ED50^ST /ED50^analgesia), the selectivity ratio came to 46.

Consider `COc1cccc([C@@]23CCN(CCc4ccc(C)cc4)C[C@H]2CCC(C)C3)c1` (stereo partly drawn) [N-p-methylphenethyl-4a-(m-methoxyphenyl)-6-methyl-trans-decahydroisoquinoline], for which the 50% effective dose (ED50) in data set [2] turned out to be 8.7 mg/kg. In addition, the ED50 at 25 min in data set [3] is over 135 mg/kg.

Consider `Oc1cccc([C@@]23CCCC[C@H]2CN(CCc2ccccc2)CC3)c1` (relative stereo) [N-phenethyl-4a-(m-hydroxyphenyl)-trans-decahydroisoquinoline], for which the ED50^analgesia in the data set on mice [4] (setting [7]) was 6.6 mg/kg. Further, the selectivity ratio in “in vivo” (po) was about 1. The ED50^ST in the data set on mice [5] (setting [7]) is 10 mg/kg.

For the compound `CC1C2Cc3ccc(O)cc3C1(C)CCN2CCc1ccccc1` (stereo not shown) [phenazocine, 2'-hydroxy-5,9-dimethyl-2-phenethyl-6,7-benzomorphan], the “analgesic activity” value in data set [1] is given as “potent analgesic”. In addition, the “morphine-like actions” value in data set [6] is “produces the entire range of morphine-like actions, including respiratory depression, constipation, and physical dependence”.

Consider `Cc1ccc(CCN2CC[C@@]3(c4cccc(O)c4)CC(C)CC[C@@H]3C2)cc1` (stereo partly drawn) [N-(p-methylphenethyl)-4a-(m-hydroxyphenyl)-6-methyl-trans-decahydroisoquinoline], for which the ED50 in data set [2] was found to be 2 mg/kg. The ED50 at 25 min in data set [3] amounted to 135 mg/kg.

In the case of `CN1CC[C@]23c4c5ccc(O)c4O[C@H]2[C@@H](O)C=C[C@H]3[C@H]1C5` [morphine], in the data set on mice [4] (morphine, background section), the ED50^analgesia was 5.6 mg/kg.

The record behind these values is patent US4077954A, “N-(p-methylphenethyl)-4a-aryl-trans-decahydroisoquinolines” (priority 1976, dated 1978).
